Results published in patent US11020422B2, “Cyclodextrin for the treatment of lysosomal storage diseases” (The United States of America, as represented by the …, priority 2012, dated 2021).
Like-named read-outs stand apart in the source and are kept apart here. Blank lines part the entries; values can stand above or below the compound they belong to.

Columns and labels:
Wolman fibroblasts [1] = test: Amplex-Red cholesterol assay in Wolman fibroblasts; format: cell-based, human; details: for cholesterol accumulation: cyclodextrins alone, other lysosomal storage disorders (FIG. 1)
Experimental: (§1) Amplex-Red Cholesterol Assay—Total cholesterol in patient cells was measured by the Amplex-Red Cholesterol Assay Kit (Invitrogen). The unesterified cholesterol was determined using the same kit without the enzyme […]. Esterified cholesterol was determined as the difference between the total and unesterified cholesterol values. The cells were seeded to black, tissue culture-treated 96-well, 384-well or 1536-well plates at 4000, 1000, 300 cells/well in 100, 20 or 5 μl medium by a Multidrop Combi dispenser (Thermo Scientific, Waltham, Mass.) and cultured for 24 hr. The assay plates were added with compound dilution in DMSO solution using a Pintool station (Klaypsys, San Diego, Calif.) and cultured for 3 days. The cells were washed twice manually for 96-well or 384-well plates or using a centrifugation method in which the inverted plates were placed on a stack of paper towel and centrifuged at 800 rpm for 1 min followed by addition of 7 μl/well PBS (added gently with a 45 degree angled liquid dispenser (Klaypsys). The cholesterol assay mixture from the kit was added at 100, 20 or 2.5 μl/well for 96-well, 384-well or 1536-well plates and incubated for 1 hr at 37° C. The resulted fluorescence intensity was measured with excitation of 560 (±10) and emission of 590 (±10) in a fluorescence plate reader (Tecan, Durham, N.C.).

Wolman fibroblasts [2] = test: β-Hexosaminidase (HEXB) release, lysosomal exocytosis; format: cell-based, human; details: for lysosomal exocytosis as determined by HEXB secretion: Wolman fibroblasts, FIG. 3; for exocytosis: cyclodextrins, wild type and Wolman cells, assay not stated
Experimental: Measurement of β-Hexosaminidase (HEXB) Release—Fibroblasts were cultured in 24-well plates at 30,000 cells/well in 0.4 ml medium for one day at 37° C. After being washed twice with the assay buffer (DMEM with 2 mM D-mannose 6-phosphate sodium salt), the cells with 0.4 ml/well the assay buffer were incubated at 37° with 0.2 ml/well compound in assay buffer. […] The rest of assay buffer in the 24-well plate was discarded followed by addition of 0.6 ml 1% Triton-X100 in dH2O to lyse the cells. After incubation at 37° C. for 30 min. 6 μl/well cell lysate were added to the 96-well plate with 24 μl assay buffer followed by 90 μl/well 2.25 mM HEXB substrate, 4-Methylumbelliferyl N-acetyl-β-D-glucosaminide (Sigma-Aldrich, #M2133), in a 25 mM citric acid buffer at pH 4.5. The 96-well plate was then measured in the Tecan fluorescence plate reader (Ex=365±20 nm and Em=460±20 nm) after 1 hr incubation at 37° C. and addition of 100 μl/well stop solution (1 M glycine and 1 M NaOH at pH 10.5).
FIG. 3. […] We measured lysosomal exocytosis in delta-T-treated Wolman fibroblasts by determining the activity of beta-hexosaminidase (HEXB), a lysosomal enzyme, in the extracellular medium.
In brief, the level of lysosomal exocytosis was determined by measuring the level of the lysosomal enzyme HEXB secreted into the culture medium following treatment with drug.

[3] = tested on: fibroblasts derived from patients with lysosomal storage diseases; test: LysoTracker dye staining of enlarged lysosomes; format: cell-based, human; details: for concentration needed for significant effect on reduction of enlarged lysosome size: single compound use, skin fibroblasts of nine lysosomal storage diseases
Experimental: (§2) On the experimental day, cells were live-stained with 100 μl/well 50 nM LysoTracker-Red DND-99 dye (Invitrogen, #L-7528) in medium at 37° C. for 1 hr followed by plate washing twice with PBS. The plate was then fixed in 100 μl/well 3.2% formaldehyde for 1 hr and washed for two times with PBS. […] After washing twice with PBS, the plates were stored at 4° C. until imaging analysis. DAPI filter set and TRITC filter set in the Incell2000 imaging plate reader were used to visualize Hoechst nuclear staining and LysoTracker staining, respectively.
FIG. 5. […] To test this hypothesis we measured the ability of delta-T to decrease acidic/lysosomal compartment size as determined by LysoTracker staining in fibroblasts derived from patients with six other diseases. Lysosomal storage occurs in these fibroblasts consists of ceroid/lipofuscin in Batten (CLN2), globotriaosylceramide in Fabry, ceramide in Farber, sphingomyelin in NPA, partially degraded heparan sulfate in Sanfilippo type B, and GM2 ganglioside in Tay-Sachs (Table S1).
The effect of various cyclodextrins, δ-tocopherol, and combinations of cyclodextrins and δ-tocopherol on lipid accumulation and lysosome size in wild-type and lysosomal storage disease fibroblasts (Wolman, Tay-Sach, Fabry, Farber, and MPSIIIB fibroblasts) was determined using Lysotracker assay. In brief, cells were treated with various combinations and concentrations of drugs followed by staining with the Lyso tracker dye which is a basophilic fluorescent probe that accumulates in acidic compartments, i.e. lysosomes, within the cell.

NPC1 skin fibroblasts = test: Cholesterol accumulation (Amplex-red, filipin) and enlarged lysosomes (Lysotracker) in NPC1 skin fibroblasts; format: cell-based, human; details: for ranking order of cholesterol reduction effect / cholesterol accumulation: NPC cells
Experimental: as §1

NPC1-NSCs [4] = test: Amplex-red cholesterol assay in NPC1 neural stem cells; format: cell-based, human
Experimental: as §1
(§3) Induced pluripotent stem cells (IPSCs) from the NPC1 skin fibroblasts were generated and differentiated into neural stem cells (NPC1-NSCs).

NPC1-NSCs [5] = test: Filipin and Lysotracker staining in NPC1 neural stem cells; format: cell-based, human; details: fluorescence microscopy, FIG. 12B
Experimental: as §2, §3

[6] = tested on: mouse model of Niemann Pick Type C (NPC) disease; details: cited from earlier work
[7] = tested on: NPC1, Wolman and other lysosome storage disorder fibroblasts; test: Electron microscopy of lysosomal ultrastructure; details: Wolman fibroblasts; FIG. 6
Experimental: Electron Microscopy—Fibroblast cells were seeded in 6-well plates at 150,000 cells/well in 5 ml medium and cultured for 1 day in the presence or absence of compounds. Cells were fixed in 2% glutaraldehyde, 0.1 M cacodylate buffer, pH 7.2 for 1 hr at room temperature and then stored at 4° C. until TEM analysis was performed. The cells were post fixed in 1% osmium tetroxide in the same buffer for 1 hour and en bloc stained with 0.5% uranyl acetate in 0.1 M acetate buffer, pH 4.2. The cells were then dehydrated in graded ethanol solutions (35%, 50%, 70%, 95% and 100%) and infiltrated overnight in epoxy resin (Poly/Bed 812, Polysciences). After adding fresh pure resin the cell plates were cured for 72 h in 55° C. After removing the polystyrene plates, suitable areas for thin sectioning were selected, cut out with a jewelry saw and glued onto empty resin stubs. About 70 nm thin sections were cut on an ultramicrotome (Leica EM UC6) and mounted on naked copper grids. The thin sections were double stained (uranyl acetate and lead citrate), examined in a Hitachi H-7650 transmission electron microscope, and images were taken using an AMT CCD camera.
The effects of δ-tocopherol and methyl-β-cyclodextrin on the ultrastructural pathology of lysosomes in lysosome storage disorder cells were investigated by electron microscopy. In brief, following treatment of wild-type and lysosome storage disorder fibroblasts with δ-tocopherol, methyl-β-cyclodextrin, or δ-tocopherol and methyl-β-cyclodextrin, the fibroblasts were fixed and embedded. Thin sections of the embedded cells were then prepared and the ultrastructural pathology was examined by electron microscopy. […] The effects of δ-tocopherol and/or methyl-β-cyclodextrin on the ultrastructural pathology of other lysosome disorder fibroblasts-Farber (FIGS. 7,8 and 10); Tay-Sachs (FIG. 8); Fabry (FIG. 8); Wolman (FIG. 9); NPA (FIG. 9); Batten (FIG. 9); MSIIB (FIG. 9)—were analyzed by electron microscopy.

Wolman fibroblasts [8] = test: Nile Red staining of neutral lipids in Wolman fibroblasts; details: cultured with compound for 3 days
Experimental: Nile-red Staining—The cells were cultured and treated as described above in 96-well plates. On the experimental day, cells were washed two times with PBS and live-stained with 1 μM Nile-red dye solution (prepared in cell culture medium) at 100 μl/well followed by an incubation at 37° C. for 10 min. After washed twice with PBS, the cells were fixed in 3.2% paraformaldehyde in PBS at 100 μl/well 1 μg/ml Hoechst 33342 (Invitrogen) in PBS and incubation at RT for 30 min. The plate was washed twice with PBS and the images were measured in Incell2000 imaging plate reader with a FTTC filter set (Ex=480±20 nm and Ex=525±36 nm) for the neutral lipids (cholesteryl esters and triglycerides) and a DAPI filter set for Hoechst nuclear staining.
(Nile Red) Cells were cultured in the presence of delta tocopherol, alpha tocopherol and MBCD plus in combination for 3 days and then stained for neutral lipid with Nile red.
Wolman fibroblasts were treated with δ-tocopherol, α-tocopherol, methyl-β-cyclodextrin, or combinations of δ-tocopherol and methyl-β-cyclodextrin or α-tocopherol and methyl-β-cyclodextrin. […] To further characterize the effect of treatment on lipid accumulation, treated fibroblasts were evaluated using a Nile Red assay to measure neutral lipid accumulation. […] The Nile Red staining was visualized by fluorescent microscopy.

primary NPC fibroblasts = primary NPC fibroblasts / LSD fibroblast; reported; cited from earlier work
NPC cells = details: NPC / NPC1 cells; reported; cited from earlier work
[9] = NPC1-NSCs, FIG. 12A, read-out: IC50, Amplex-red cholesterol assay

Compound: COC[C@H]1O[C@@H]2O[C@H]3[C@H](O)[C@@H](OC)[C@@H](O[C@H]4[C@H](O)[C@@H](OC)[C@@H](O[C@H]5[C@H](O)[C@@H](OC)[C@@H](O[C@H]6[C@H](O)[C@@H](OC)[C@@H](O[C@H]7[C@H](O)[C@@H](OC)[C@@H](O[C@H]8[C@H](O)[C@@H](OC)[C@@H](O[C@H]1[C@H](O)[C@H]2OC)O[C@@H]8COC)O[C@@H]7COC)O[C@@H]6COC)O[C@@H]5COC)O[C@@H]4COC)O[C@@H]3COC [MBCD, Heptakis(2,6-di-o-methyl)-beta-cyclodextrin]
reduction in total cholesterol (Wolman fibroblasts [1]; Wolman fibroblasts, FIGS. 1A-1C): significant reduction
reduction in free cholesterol (Wolman fibroblasts [1]; Wolman fibroblasts, FIGS. 1D-1F): significant reduction
cholesterol accumulation (Wolman fibroblasts [1]): most potent
lysosomal exocytosis as determined by HEXB secretion (Wolman fibroblasts [2]): significant increases in lysosomal exocytosis
LysoTracker staining ([3]; NPC1 and Wolman fibroblasts, 40 μM delta-T or 300 μM MBCD): significantly reduced LysoTracker staining
lipid accumulation and lysosome size (Lysotracker) ([3]; Wolman, Tay-Sach, Fabry, Farber, MPSIIIB fibroblasts, FIGS. 5A-5D): reduced lipid accumulation and lysosome size
concentration needed for significant effect on reduction of enlarged lysosome size [3]: 300 µM
reduction of cholesterol accumulation and enlarged lysosomes (NPC1 skin fibroblasts; NPC1 skin fibroblasts, 160 μM MBCD alone, 50 μM HBPCD or 20 μM MBCD with 10 μM delta-tocopherol, FIG. 11): almost completely reversed the phenotype
ranking order of cholesterol reduction effect (NPC1 skin fibroblasts): MBCD>alpha-CD>gamma-CD
potency of MBCD relative to HBPCD (NPC1 skin fibroblasts; reduction of cholesterol accumulation and enlarged lysosome size in NPC1 fibroblasts): over 30 fold
IC50 (NPC1-NSCs [4]; [9]): 10 µM
reduction of cholesterol accumulation (filipin staining) and enlarged lysosomes (Lysotracker staining) (NPC1-NSCs [5]): better than those of delta-tocopherol
cholesterol accumulation and neuronal cell loss [6]: reduced cholesterol accumulation and neuronal cell loss
abnormal lysosomal structures (electron microscopy) [7]: significantly reduced
neutral lipid accumulation (Nile red) (Wolman fibroblasts [8]; FIG. 2): reduces accumulation of neutral lipids
neutral lipid accumulation (Nile red) (Wolman fibroblasts [8]; FIG. 2, listed as methyl-β-cyclodextrin): significantly reduced

exocytosis (Wolman fibroblasts [2]): enhance exocytosis
Compound: OC[C@H]1O[C@@H]2O[C@H]3[C@H](O)[C@@H](O)[C@@H](O[C@H]4[C@H](O)[C@@H](O)[C@@H](O[C@H]5[C@H](O)[C@@H](O)[C@@H](O[C@H]6[C@H](O)[C@@H](O)[C@@H](O[C@H]7[C@H](O)[C@@H](O)[C@@H](O[C@H]1[C@H](O)[C@H]2O)O[C@@H]7CO)O[C@@H]6CO)O[C@@H]5CO)O[C@@H]4CO)O[C@@H]3CO [alpha-CD, α-cyclodextrin]
cholesterol accumulation (Wolman fibroblasts [1]): can reduce cholesterol accumulation
cholesterol accumulation (NPC1 skin fibroblasts): can reduce cholesterol accumulation
ranking order of cholesterol reduction effect (NPC1 skin fibroblasts): MBCD>alpha-CD>gamma-CD

exocytosis (Wolman fibroblasts [2]): enhance exocytosis
Compound: OC[C@H]1O[C@@H]2O[C@H]3[C@H](O)[C@@H](O)[C@@H](O[C@H]4[C@H](O)[C@@H](O)[C@@H](O[C@H]5[C@H](O)[C@@H](O)[C@@H](O[C@H]6[C@H](O)[C@@H](O)[C@@H](O[C@H]7[C@H](O)[C@@H](O)[C@@H](O[C@H]8[C@H](O)[C@@H](O)[C@@H](O[C@H]1[C@H](O)[C@H]2O)O[C@@H]8CO)O[C@@H]7CO)O[C@@H]6CO)O[C@@H]5CO)O[C@@H]4CO)O[C@@H]3CO [beta-CD, β-cyclodextrin]
cholesterol accumulation (Wolman fibroblasts [1]): can reduce cholesterol accumulation
cholesterol accumulation (NPC1 skin fibroblasts): can reduce cholesterol accumulation
lysosomal exocytosis (primary NPC fibroblasts): increased exocytosis

Compound: COc1cc(/C=C/C(=O)CC(=O)/C=C/c2ccc(O)c(OC)c2)ccc1O [curcumin]
cholesterol efflux, accumulation or storage (NPC cells): reduce cholesterol storage

exocytosis (Wolman fibroblasts [2]): enhance exocytosis
Compound: OC[C@H]1O[C@@H]2O[C@H]3[C@H](O)[C@@H](O)[C@@H](O[C@H]4[C@H](O)[C@@H](O)[C@@H](O[C@H]5[C@H](O)[C@@H](O)[C@@H](O[C@H]6[C@H](O)[C@@H](O)[C@@H](O[C@H]7[C@H](O)[C@@H](O)[C@@H](O[C@H]8[C@H](O)[C@@H](O)[C@@H](O[C@H]9[C@H](O)[C@@H](O)[C@@H](O[C@H]1[C@H](O)[C@H]2O)O[C@@H]9CO)O[C@@H]8CO)O[C@@H]7CO)O[C@@H]6CO)O[C@@H]5CO)O[C@@H]4CO)O[C@@H]3CO [gamma-CD, γ-cyclodextrin]
cholesterol accumulation (Wolman fibroblasts [1]): can reduce cholesterol accumulation
cholesterol accumulation (NPC1 skin fibroblasts): can reduce cholesterol accumulation
ranking order of cholesterol reduction effect (NPC1 skin fibroblasts): MBCD>alpha-CD>gamma-CD

Compound: Cc1c(C)c2c(c(C)c1O)CC[C@@](C)(CCC[C@H](C)CCC[C@H](C)CCCC(C)C)O2 [α-tocopherol]
lysosomal exocytosis as determined by HEXB secretion (Wolman fibroblasts [2]): significant increases in lysosomal exocytosis
neutral lipid accumulation (Nile red) (Wolman fibroblasts [8]; FIG. 2): failed to show any effect
neutral lipid accumulation (Nile red) (Wolman fibroblasts [8]; FIG. 2, listed as Alpha Tocopherol): not as potent

Compound: (2-Hydroxypropyl)-beta-cyclodextrin [HBPCD]
concentration needed for significant effect on reduction of enlarged lysosome size [3]: 8000 µM
concentration needed for reduction of cholesterol accumulation and enlarged lysosomes (NPC1 skin fibroblasts; NPC1 skin fibroblasts, single use, FIG. 11A): millimolars
potency in NPC1 neuronal cells compared to NPC1 skin fibroblasts (NPC1-NSCs [4]): much more potent
cholesterol accumulation, combination therapy experiment (NPC1-NSCs [4]; 50 μM HBPCD, 10 μM delta-tocopherol, alone or combined, compared with 5 mM HBPCD): did not show the significant cholesterol reduction effect
IC50 (NPC1-NSCs [4]; [9]): 12 µM
ratio of IC50 HBPCD to IC50 delta-tocopherol (NPC1-NSCs [4]; human NPC1 neural stem cells): 3.3 fold
IC50 (NPC1-NSCs [4]; human NPC1 neural stem cells, values given under dosage recommendations, read-out: IC50 on reduction of cholesterol accumulation, Amplex-red cholesterol assay): 50 µM
reduction of cholesterol accumulation (filipin staining) and enlarged lysosomes (Lysotracker staining) (NPC1-NSCs [5]): better than those of delta-tocopherol
cholesterol accumulation and neuronal cell loss [6]: reduced cholesterol accumulation and neuronal cell loss
lysosomal exocytosis (primary NPC fibroblasts): promote a calcium-dependent lysosomal exocytosis
